Data reported in patent US20190177440A1, “COMPOUND OR SALT THEREOF, ANTI-INFLAMMATORY AGENT, ANTI-CANCER AGENT AGAINST LUNG CANCER, METHOD OF PRODUCING COMPOUND OR SALTS THEREOF, METHOD OF TREATING INFLAMMATORY DISEASES AND METHOD OF TREATING LUNG CANCER” (TFK CO., LTD., priority 2016, published 2019).

Columns and labels:
[1] = tested on: TNF-α; experiment: TNF-α production in RAW264.7 cells stimulated with LPSp (Example 7); type: cell-based, mouse; details: final 1 ng/mL to 10 μg/mL, then LPSp 100 ng/mL, FIG. 7
Description: The culture medium was added to mouse macrophage cells (RAW264.7, ATCC) to prepare solutions at concentrations of 4×10^5 cells/mL. The solutions were seeded in 96-well flat-bottomed plates in 100 μL portions, i.e., 4×10^4 cells/100 μL/well. After seeding, the cells were incubated at 37° C. in 5% CO2 for 2 hours until they adhered to the bottoms of the wells and extended. Next, 100 μL of the test solution was added to each well. After adding the test solution, the cells were incubated at 37° C. in a 5% CO2 for 24 hours. After the incubation, the culture supernatant of the wells was removed, 150 μl of the above-mentioned culture solution was newly added (hereinafter, this step is referred to as a “culture solution adding step”), and the wells were incubated at 37° C. in a 5% CO2 for 24 hours.
After incubation, 50 μl of culture supernatant from each well was collected, transferred to each well of new 96-well flat-bottom plates, and absorbance was measured using mouse TNF a assay kit (manufactured by Biolegend) and converted to TNF-α concentrations.
In this example, an experiment was carried out in the same manner as in Example 6 except for the following two points, and 50 μL of culture supernatant of each well was collected and TNF-α concentration was measured. That is, in this example, a total of five test solutions were used as the test solution, in which the concentration of the purified product was 20 μg/mL, 2 μg/mL, 200 ng/mL, 20 ng/mL, and 2 ng/mL. Since the five test solutions are diluted twice when added to the cells, the final concentrations of the purified products are 10 μg/mL, 1 μg/mL, 100 ng/mL, 10 ng/mL, and 1 ng/mL, respectively. In this example, in the culture medium adding step in Example 5, 150 μL of the culture medium containing LPSp at a final concentration of 100 ng/mL was added instead of 150 μL of the culture medium.

[2] = tested on: Lewis lung carcinoma: 3LL; experiment: Tumor volume in mice bearing Lewis lung carcinoma 3LL (Example 9); type: in vivo, mouse; details: Example 9-1: ip 0.5 mg/10 mL/kg once, without CY; days 3, 6, 9; FIG. 9
Description: (1) Preparation of Cancer-Bearing Mice Suspensions of Lewis lung cancer cell lines (Lewis lung carcinoma: 3LL, obtained from JCRB cell banks) were subcutaneously administered to the ventral region of five male C57 BL/6J mice aged 6 weeks so that the cancer cell dose per animal was 2.5×10^5 cells per 200 μL. Two weeks after dosing, tumors were excised from one of the mice and washed on dishes with PBS (−). Next, the washed tumor was made into a finely divided tumor fragment of about 2 mm square, the tumor fragment was transferred to a 50 mL tube, 5 mL of collagenase solution was added, and the mixture was warmed at 37° C. for 10 minutes. Thereafter, the collagenase solution containing the tumor fragments was pipetted into finer tumor fragments, and the collagenase solution containing the tumor fragments was transferred to another 50 mL tube and cooled on ice. After cooling, an additional 5 mL of collagenase solution was added to the collagenase solution containing the tumor fragments, and the same procedure was repeated 5 times until no tumor fragments could be observed. Thereafter, the collagenase solution containing the tumor fragment was filtered through a cell strainer (mesh size: 70 μm, manufactured by BD Corporation), and the filtrate was centrifuged at 1200 rpm for 7 minutes. After centrifugation, the supernatant was removed, 20 ml of […] medium (serum-free) was added to the precipitate, and after suspension by inversion mixing, the precipitate was centrifuged at 1200 rpm for 7 minutes. After centrifugation, the supernatant was removed, and the precipitate was washed twice with PBS (−), and then 10 mL of PBS (−) was added and suspended to prepare a cancer cell suspension. The cancer cell suspension was subcutaneously administered to the ventral portion of the 12 mice so that the cancer cell dose per animal was 2.5×10^5 cells per 200 μL. Fourteen days after dosing, tumors were excised from 10 of the mice and cancer cell suspensions were prepared in the same manner as described above. The cancer cell suspensions were administered intracutaneously into the abdomen of the 108 mice so that the cancer cell dose per animal was 2.5×10^5 cells per 50 μL. After administration, mice were divided into six groups (n=6 in each group) as shown below at the time point when the tumor size of each mouse became about 5 mm in diameter (day 8 after administration). […]
The major and minor diameters of the tumors were measured using calipers on Days 3, 6 and 9 on the day of grouping as day 0, and the tumor volume was calculated based on these measurements. […]

| Compound | TNF-α concentration in culture supernatant [1] | tumor volume versus saline group [2] |
| --- | --- | --- |
| CCCCCC/C=C/CCCCCC(=O)OC(CCCCCCCCCCC)CC(=O)NC1C(OCC2OC(OP(=O)(O)O)C(NC(=O)CC(=O)CCCCCCCCCCC)C(OC(=O)CC(O)CCCCCCC)C2O)OC(COC2(C(=O)O)CC(OC3(C(=O)O)CC(OC4OC(C(=O)O)C(OC5OC(CO)C(O)C(O)C5O)C(O)C4O)C(O)C(C(O)CO)O3)C(OC3OC(COP(=O)(O)O)C(OC4OC(CO)C(O)C(O)C4O)C(O)C3O)C(C(O)CO)O2)C(OP(=O)(O)O)C1OC(=O)CC(O)CCCCCCC (centres unmarked) [Formula (A1)] | Equivalent results were obtained | equivalent results |
| CCCCCC/C=C/CCCCCC(=O)OC(CCCCCCCCCCC)CC(=O)NC1C(OCC2OC(OP(=O)(O)O)C(NC(=O)CC(=O)CCCCCCCCCCC)C(OC(=O)CC(O)CCCCCCC)C2O)OC(COC2(C(=O)O)CC(OC3(C(=O)O)CC(O)C(OC4OC(C(=O)O)C(OC5OC(CO)C(O)C(O)C5O)C(O)C4O)C(C(O)CO)O3)C(OC3OC(CO)C(O)C(O)C3O)C(C(O)CO)O2)C(OP(=O)(O)O)C1OC(=O)CC(O)CCCCCCC (centres unmarked) [Formula (B2)] | Equivalent results were obtained | equivalent results |
| CCCCCC/C=C/CCCCCC(=O)OC(CCCCCCCCCCC)CC(=O)NC1C(OCC2OC(OP(=O)(O)O)C(NC(=O)CC(=O)CCCCCCCCCCC)C(OC(=O)CC(O)CCCCCCC)C2O)OC(COC2(C(=O)O)CC(OC3(C(=O)O)CC(OC4OC(C(=O)O)C(OC5OC(CO)C(O)C(O)C5O)C(O)C4O)C(O)C(C(O)CO)O3)C(OC3OC(CO)C(O)C(O)C3O)C(C(O)CO)O2)C(OP(=O)(O)O)C1OC(=O)CC(O)CCCCCCC (centres unmarked) [Formula (A2)] | Equivalent results were obtained | equivalent results |
| CCCCCC/C=C/CCCCCC(=O)OC(CCCCCCCCCCC)CC(=O)NC1C(OCC2OC(OP(=O)(O)O)C(NC(=O)CC(=O)CCCCCCCCCCC)C(OC(=O)CC(O)CCCCCCC)C2O)OC(COC2(C(=O)O)CC(OC3(C(=O)O)CC(O)C(OC4OC(C(=O)O)C(OC5OC(CO)C(O)C(O)C5O)C(O)C4O)C(C(O)CO)O3)C(OC3OC(COP(=O)(O)O)C(OC4OC(CO)C(O)C(O)C4O)C(O)C3O)C(C(O)CO)O2)C(OP(=O)(O)O)C1OC(=O)CC(O)CCCCCCC (centres unmarked) [Formula (B1)] | Equivalent results were obtained | equivalent results |
